Test results: patent US20240425855A1, “NUCLEIC ACID-[…] RNAS FOR TRIGGER-[…]” (Hoffmann-La Roche Inc., priority 2021, published 2024)

How the values were obtained:
[1] = test system: Env140-based LNA-regulatable ribozyme (cell lines S69 and S70); experiment: LNA-activation assay and flow cytometry of GFP expression; design: species or system CHO; conditions: stable cell lines with inducible/switchable construct and inactive construct; FACS
Experimental: S69 and S70, were seeded at 50,000 cells/well into a flat-bottom round wells 96-well microplate, in 200 μL media, and incubated in standard static cell culture condition with or without 12.5 μM LNA oligonucleotide added from three to seven days, after which a 70 μL aliquot was removed and analyzed by flow cytometry. Flow cytometry was performed on a 4-6 color BD FACSCanto™ or FACS Celesta™ System using the FITC channel for the evaluation of GFP expression, and APC channel for iRFP expression. The population of cells was gated to avoid cell doublets detected by the forward and side scattering.

[2] = test system: K4/K19 tetracycline-responsive ribozyme-switch; experiment: K4/K19 tetracycline-responsive ribozyme-switch controlling GFP expression in stably transfected cells (FACS); type: cell-based, CHO; conditions: 50 μM tetracycline concentration; GFP readout
Experimental: The method according to the current invention is exemplified first in the following using the K4/K19 tetracycline-responsive ribozyme-switch generated by Beilstein et al. (ACS Synth. Biol., […] (2015) 526-534). This is presented solely as an illustration of the method according to the invention and shall not be construed as limitation thereof. The true scope is set forth in the appended claims.
Whilst the output measurement was different (Luciferase vs GFP) a 1.9× fold-increase at 50 μM tetracycline concentration was achieved (FIG. 4 and FIG. 5).
For testing and screening RNA-switches that control the mRNA degradation of a GFP reporter were cloned into the front plasmid, whereas the red-shifted iRFP gene was cloned into the back plasmid and was used for fluorescence normalization purposes. Expressed genes were placed under the control of a strong promoter (SV40). The RNA-switches constructs were cloned downstream of the GFP gene and before the bovine growth hormone polyadenylation (bGH-polyA) signal sequence. For each construct, both the complementary and anti-complementary strands were ordered as 5′-phosphorylated ssDNA oligonucleotides at Microsynth AG (Belgach, Switzerland) and were annealed by snap cooling at 0.166 μM concentration. […]

Row | Compound | shift of GFP fluorescence upon application of the LNA [1] | fold-increase (GFP output) [2]
1 | ATTGTGCCTGAGGGTAGT (all phosphorothioate, sugars by position and methylation of C not given here; some nucleotides are LNA) | fluorescence is shifted | 
2 | CN(C)[C@@H]1C(O)=C(C(N)=O)C(=O)[C@@]2(O)C(O)=C3C(=O)c4c(O)cccc4[C@@](C)(O)[C@H]3C[C@@H]12 [tetracycline] |  | 1.9 fold
